Values quoted from earlier work as cited in patent publication EP0426167A2, “Antitumor substance, process for preparing the same, and pharmaceutical composition containing the same” (MEIJI SEIKA KAISHA LTD., priority 1989, dated 1991).

Key:
[1] = tested on: P388 tumor cells; conditions: result in words; cited from earlier work
[2] = mouse, i.p.; cited from earlier work
[3] = tested on: P388 tumor cells; conditions: result in words; cited from earlier work; remark: listed apart in the source

Cc1cc2c(c3oc(C4(C)OC4C4OC4C)cc(=O)c13)C(=O)c1c(ccc(C3CC(C)(N(C)C)C(O)C(C)O3)c1O)C2=O (stereo not drawn) [SF2587 substance]
inhibitory activity on P388 tumor cells [1]: considerable inhibitory activity | LD₅₀ [2]: 0.5 to 1 mg/kg | therapeutic effects in mice transplanted with P388 tumor cells [3]: excellent therapeutic, effects
